Reference: US20260240880A1, “AGENT FOR AMELIORATING OR TREATING DEMENTIA, PRIMARILY ALZHEIMER'S DEMENTIA” (HOMO C[…] AND DEVELOPMENT INSTITUTE, priority 2023, published 2026)
Entries after “also recorded” stand apart in the source; their conditions may differ.

Assays:
[1] = Body weight measurement once a week during 24 weeks of daily administration; format: in vivo, mouse; design: Weight change / Weight change (average): unit not given here; details: APPosk mice; for Weight loss after 24 weeks of daily administration: i.p. once daily, 0.9 or 1.8 mg/kg; for Weight change: range
From the text: (§1) Sixty-eight APPosk (SPF) male mice were produced according to the method described in Tomiyama T., Nagata T., Shimada H., Teraoka R., Fukushima A., Kanemitsu H., Takuma H., Kuwano R., Imagawa M., Ataka S., Wada Y., Yoshioka E., Nishizaki T., Watanabe Y., Mori H. A new amyloid β variant favoring oligomerization in Alzheimer's-type dementia. Ann. Neurol. 63, 377-387 (2008) at BioSafety Research Center Inc. (BSRC), which has a track record in producing model mice, and were raised until 24 weeks of age. These mice were then delivered to New Drug Research Center, Inc. and acclimatized until the preliminary breeding period. Note that quarantine was carried out from the date of arrival, considered as Day 0, up to Day 7. General observations were made daily, and body weights were measured on Day 1 (the day following the arrival), Day 3, and Day 7 after the arrival. Each individual was placed in a polysulfone cage and kept in an animal breeding room under conditions of a temperature of 22° C.±3° C., a humidity of 50%±20%, and a 12-hour light/dark cycle.
(§2) Of the 16 wild-type mice that arrived, 10 with weights close to the average were selected to form the normal group. Sixty-eight APPosk mice were delivered and assigned by stratified continuous randomization to the following groups: Pathological; Pathological+2ccPA (L); Pathological+2ccPA (H); Pathological+2cLPA (L); and Pathological+2cLPA (H). L: Low dose (0.9 mg/kg); H: High dose (1.8 mg/kg)
(§3) The dosing solution was filled into a syringe (disposable syringe) equipped with a 26G needle, and administered intraperitoneally once daily for 168 days (24 weeks). On the day when the Morris water maze test was performed, the dosing solution was administered after the Morris water maze test.
Body weight was measured using an electronic balance once a week. Each time, the measurement was carried out twice at different times.

[2] = system: Alzheimer's dementia model mouse (APPosk); assay: Morris water maze test (escape latency); format: in vivo; details: APPosk mice; for Memory improvement effect in the Morris water maze test: i.p. once daily for 168 days (24 weeks), tested at 48 weeks of age; for Memory effect in the Morris water maze test at low dose: low dose 0.9 mg/kg i.p. once daily for 24 weeks
From the text: as §1, §2, §3
When the mice reached 12 months of age (48 weeks of age), the Morris water maze test was performed.
The water maze (diameter: 90 cm; height: 60 cm; water temperature: approximately 22° C.) was made opaque with a white non-toxic paint (skim milk) and divided into four virtual quadrants (east, west, north, and south). A circular platform having a diameter of 8 cm was submerged approximately 1 cm below the water surface and placed near the center of the north quadrant. Black markers were placed on the walls of the water maze as extramaze cues.
The time it took to reach the platform placed in the water maze (escape latency) was measured over 4 days. Each animal underwent five consecutive trials, with an interval of approximately 20 seconds between the end and start of each trial.
Each trial began with the mouse being placed in any quadrant except the north quadrant, with its face facing the outer edge of the water maze. A webcam (Logicool HD Webcam C615) and SMART v3.0 (Panlab Harvard Apparatus) were used for measurement and analysis. […]

[3] = system: tau protein and phosphorylated tau protein; assay: Quantitative determination of tau protein and phosphorylated tau protein (immunostaining of brain sections); format: in vivo, mouse; details: for Suppression of phosphorylation of tau protein: APPosk mice, low dose; for Phosphorylated tau (Ser396) area/Hippocampus area (average) / Phosphorylated tau (Ser404) area/Hippocampus area (average) / Tau protein area/Hippocampus area (average) / Phosphorylated tau (Ser396) area/Hippocampus area / Phosphorylated tau (Ser404) area/Hippocampus area / Tau protein area/Hippocampus area: APPosk-Tg mice, low dose (L) 0.9 mg/kg; for Phosphorylated tau (Ser396) area/Hippocampus area / Phosphorylated tau (Ser404) area/Hippocampus area / Tau protein area/Hippocampus area: range; for Tau protein area/Hippocampus area: five sections
From the text: After exsanguination, 6 of the 10 individuals in each group (with numbers ending in 1 to 6) were perfused with phosphate-buffered saline (PBS) and then perfused again with 4% paraformaldehyde (PFA) to fix the brains, after which the brains were removed. The extracted brains were then infiltrated and fixed using the same fixative solution. The remaining four individuals in each group (with numbers ending in 7 to 10) were perfused whole body with PBS, and then their brains were extracted and frozen using liquid nitrogen.
Serial sections (thickness: 40 μm) of fixed mouse […] were prepared using a cryostat. The sections were incubated overnight with primary antibodies and then for 1 hour with secondary antibodies. Stained images were then captured using a confocal microscope (Carl Zeiss) and quantified using NIH ImageJ. The primary antibodies used were non-phosphorylated tau antibody (Invitrogen), phosphorylated tau (Ser396) antibody (Invitrogen), and phosphorylated tau (Ser404) antibody (Invitrogen), and the secondary antibodies used were biotinylated goat anti-mouse IgG antibody (Vector Lab.) and biotinylated goat anti-rabbit IgG antibody (Vector Lab.). Quantitative determination was carried out using five sections each.
Quantitative determination of tau protein and phosphorylated tau protein in the hippocampus of normal, pathological, pathological+2ccPA (low dose), and pathological+2cLPA (low dose) mice

[4] = In vivo hippocampal microdialysis with LC/MS determination of 2ccPA (blood-brain barrier crossing); design: species or system mouse; details: 0.9 mg/kg i.p.; for 2ccPA concentration in microdialysis recovery fluid: hippocampus
Method: To confirm that 2ccPA crosses the blood-brain barrier (BBB) and enters the brain, an experiment was conducted at the Kurume Modality Analysis Laboratory of BioSafety Research Center Inc. (BSRC), which has a long track record in microdialysis, and the Institute for Disease Modeling, Kurume University School of Medicine.
2ccPA was administered intraperitoneally to 33-week-old male C57BL/6J-Aged mice (SPF, Jackson Laboratory Japan, Inc.) with a dialysis probe (FX-I-4-02, EICOM) placed in the hippocampus of the mouse brain. After that, the brain microdialysis perfusate was collected at […], 1 hour before administration and every 30 minutes (0.5 to 5.0 hours) after administration, using the in vivo microdialysis method.
The hippocampal guide cannula placement surgery was performed under isoflurane anesthesia, with a guide cannula and a dummy cannula placed at the hippocampal coordinate position (AP=−3.1 mm; ML=+2.7 mm; DV=−3.7 mm). After surgery, Vetorphale was administered subcutaneously for analgesia. Three to five days after the cannula was placed, the cannula was replaced with a dialysis probe under isoflurane inhalation anesthesia, and pre-perfusion (perfusion solution: saline containing 0.15% BSA) was then initiated.
2ccPA administration was performed under isoflurane anesthesia. D-PBS(−) containing 0.1% BSA was added to […], and the mixture was dispersed by ultrasonic treatment, thereby preparing a dosing solution.
The dosing solution was diluted with D-PBS(−) containing 0.1% BSA to a concentration of 0.9 mg/kg/day, and then sonicated individually just immediately administration. The administration route was intraperitoneal administration.
The microdialysis perfusate was collected at 11 time points: 1 hour before administration and 0.5, 1.0, 1.5, 2.0, 2.5, 3.0, 3.5, 4.0, 4.5, and 5.0 hours after administration, and each was collected into ice-cooled siliconized tubes.
Five mice in each test group underwent hippocampal cannula placement surgery, replacement with a dialysis probe, administration of the test substance, and collection of the microdialysis perfusate. The collected solution was added to an ice-cold acid-methanol solution (pH 4), stirred, and then promptly frozen in liquid nitrogen and stored at −80° C.
The concentration of 2ccPA in the perfusate collected by microdialysis from mice administered with 2ccPA was measured using LC/MS. The conditions are as follows: Shimizu Y., Fukasawa K., Yamamoto S., Shibike Y., Tsukahara R., Ishikawa M., Iwasa K., Yoshikawa K., Gotoh M., Murakami-Murofushi K. Evaluation of the pharmacokinetics of 2-carba-cyclic phosphatidic acid by liquid chromatography-triple quadrupole mass spectrometry
The standard solution for the calibration curve was prepared by adding ethanol to the standard substance, 2ccPA, dissolving it, and then mixing it with the blank matrix. The internal standard solution (IStd) was prepared by adding ultrapure water to the internal standard substance (ranitidine hydrochloride), dissolving it, and then diluting it with ultrapure water (10 ng/mL). The measurement specimen (microdialysis perfusate) was prepared by adding an acidic methanol solution (pH 4) in an amount five times the volume of the sample.
The measurement samples (the measurement specimen and the standard solution for the calibration curve) were deproteinized by adding a specimen treatment solution containing the internal standard solution to each sample. After centrifugation, the supernatant was filtered, and the 2ccPA concentration was measured using a Q Exactive Ultimate 3000 system (Thermo Scientific), thereby yielding the following results.

[5] = high dose (H) 1.8 mg/kg i.p. once daily for 24 weeks
[6] = low dose (L) 0.9 mg/kg i.p. once daily for 24 weeks

Row | Molecule | Weight loss after 24 weeks of daily administration [1] | Weight change (average) [1, 5] | Weight change (average) [1, 6] | Weight change [1, 5] | Weight change [1, 6] | Memory improvement effect in the Morris water maze test [2] | Suppression of phosphorylation of tau protein [3] | Phosphorylated tau (Ser396) area/Hippocampus area (average) [3] | Phosphorylated tau (Ser404) area/Hippocampus area (average) [3] | Tau protein area/Hippocampus area (average) [3] | Phosphorylated tau (Ser396) area/Hippocampus area [3] | Phosphorylated tau (Ser404) area/Hippocampus area [3] | Tau protein area/Hippocampus area [3] | other results
1 | oleoyl-2-carba-LPA [2cLPA] | No weight loss was observed | 30.2 | 32.0 | 29.6-31.9 | 30.8-33.3 | significantly improved memory; also recorded: significantly improve memory decline | significantly suppress the phosphorylation of tau protein | (2.4) % | (1.2) % | (19.0) % | 0.5-4.7% | 0.9-1.8% | 10.6-36.2% | Memory effect in the Morris water maze test at low dose [2]: clear effects
2 | CCCCCCCCC=CCCCCCCCC(=O)OCC1COP(=O)(O)C1 (stereo not shown) [2ccPA, oleoyl-2-carba-cPA] | No weight loss was observed | 32.1 | 32.3 | 30.6-32.8 | 31.4-33.6 | significantly improved memory; also recorded: significantly improve memory decline | significantly suppress the phosphorylation of tau protein | (2.3) % | (0.5) % | (17.4) % | 2.0-4.9% | 0.4-1.7% | 7.7-19.5% | 2ccPA concentration in microdialysis recovery fluid ([4]; 0.5 hours after administration): 1.90 ng/mL; 2ccPA concentration in microdialysis recovery fluid ([4]; 1.0 hours after administration): 2.22 ng/mL; 2ccPA concentration in microdialysis recovery fluid ([4]; 1.5 hours after administration): 2.81 ng/mL; 2ccPA concentration in microdialysis recovery fluid ([4]; 2.0 hours after administration): 2.24 ng/mL; 2ccPA concentration in microdialysis recovery fluid ([4]; 2.5 hours after administration): 1.64 ng/mL; 2ccPA concentration in microdialysis recovery fluid ([4]; 3.0 hours after administration): 1.80 ng/mL; 2ccPA concentration in microdialysis recovery fluid ([4]; 3.5 hours after administration): 2.32 ng/mL; 2ccPA concentration in microdialysis recovery fluid ([4]; 4.0 hours after administration): 2.12 ng/mL; 2ccPA concentration in microdialysis recovery fluid ([4]; 4.5 hours after administration): 2.12 ng/mL; 2ccPA concentration in microdialysis recovery fluid ([4]; 5.0 hours after administration): 1.22 ng/mL; Crossing of the blood-brain barrier ([4]; mice, hippocampal microdialysis): passed through the barrier of endothelial cells that line the walls of brain capillaries; 2ccPA concentration in microdialysis recovery fluid ([4]; time 0 (before administration), C57BL/6J-Aged mice): 0 ng/mL; Memory effect in the Morris water maze test at low dose ([2]; 0.9 mg/kg): memory maintenance effect comparable to that of the normal group; also recorded: clear effects
